The values below come from patent US9650340B2, “5-fluoro-N-(pyridin-2-yl)pyridin-2-amine derivatives containing a sulfoximine group” (BAYER PHARMA AKTIENGESELLSCHAFT, priority 2012, dated 2017).

The target of one test is T1, CDK2/CycE (Homo sapiens, UniProt P24941).
T1 construct: GST; purchased ProQinase GmbH (Freiburg, Germany); host or cells: insect cells (Sf9)
In words: CDK2/CycE kinase assay (TR-FRET, 10 μM ATP). It counts as biochemical. The conditions noted are these: Method 2 (2a). From the text: 2a. CDK2/CycE Kinase Assay:
CDK2/CycE-inhibitory activity of compounds of the present invention was quantified employing the CDK2/CycE TR-FRET assay as described in the following paragraphs:
Recombinant fusion proteins of GST and human CDK2 and of GST and human CycE, expressed in insect cells (Sf9) and purified by Glutathion-Sepharose affinity chromatography, were purchased from ProQinase GmbH (Freiburg, Germany). As substrate for the kinase reaction biotinylated peptide biotin-Ttds-[…] (C-terminus in amid form) was used which can be purchased e.g. form the company JERINI Peptide Technologies (Berlin, Germany).
For the assay 50 nl of a 100 fold concentrated solution of the test compound in DMSO was pipetted into a black low volume 384 well microtiter plate (Greiner Bio-One, Frickenhausen, Germany), 2 μl of a solution of CDK2/CycE in aqueous assay buffer [50 mM Tris/HCl pH 8.0, 10 mM MgCl2, 1.0 mM dithiothreitol, 0.1 mM sodium ortho-vanadate, 0.01% (v/v) Nonidet-P40 (Sigma)] were added and the mixture was incubated for 15 min at 22° C. to allow pre-binding of the test compounds to the enzyme before the start of the kinase reaction. Then the kinase reaction was started by the addition of 3 μl of a solution of adenosine-tri-phosphate (ATP, 16.7 μM=>final conc. in the 5 μl assay volume is 10 μM) and substrate (1.25 μM=>final conc. in the 5 μl assay volume is 0.75 μM) in assay buffer and the resulting mixture was incubated for a reaction time of 25 min at 22° C. The concentration of CDK2/CycE was adjusted depending of the activity of the enzyme lot and was chosen appropriate to have the assay in the linear range, typical concentrations were in the range of 130 ng/mL The reaction was stopped by the addition of 5 μl of a solution of TR-FRET detection reagents (0.2 μM streptavidine-XL665 [Cisbio Bioassays, Codolet, France] and 1 nM anti-RB(pSer807/pSer811)-antibody from BD Pharmingen [#558389] and 1.2 nM LANCE EU-W1024 labeled anti-mouse IgG antibody [Perkin-Elmer, product no. AD0077]) in an aqueous EDTA-solution (100 mM EDTA, 0.2% (w/v) bovine serum albumin in 100 mM HEPES/NaOH pH 7.0).
(§1) The resulting mixture was incubated 1 h at 22° C. to allow the formation of complex between the phosphorylated biotinylated peptide and the detection reagents. Subsequently the amount of phosphorylated substrate was evaluated by measurement of the resonance energy transfer from the Eu-chelate to the streptavidine-XL. Therefore, the fluorescence emissions at 620 nm and 665 nm after excitation at 350 nm was measured in a TR-FRET reader, e.g. a Rubystar (BMG Labtechnologies, Offenburg, Germany) or a Viewlux (Perkin-Elmer). The ratio of the emissions at 665 nm and at 622 nm was taken as the measure for the amount of phosphorylated substrate.
Background: Time-resolved FRET reads energy transfer from a long-lived donor to a nearby acceptor.

In another test the target is T2, CDK9/CycT1 (Homo sapiens, UniProt P50750).
T2 construct: Recombinant full-length His-tagged human CDK9 and CycT1; His; purchased Invitrogen PV4131; host or cells: insect cells
T2 sequence (P50750 whole entry): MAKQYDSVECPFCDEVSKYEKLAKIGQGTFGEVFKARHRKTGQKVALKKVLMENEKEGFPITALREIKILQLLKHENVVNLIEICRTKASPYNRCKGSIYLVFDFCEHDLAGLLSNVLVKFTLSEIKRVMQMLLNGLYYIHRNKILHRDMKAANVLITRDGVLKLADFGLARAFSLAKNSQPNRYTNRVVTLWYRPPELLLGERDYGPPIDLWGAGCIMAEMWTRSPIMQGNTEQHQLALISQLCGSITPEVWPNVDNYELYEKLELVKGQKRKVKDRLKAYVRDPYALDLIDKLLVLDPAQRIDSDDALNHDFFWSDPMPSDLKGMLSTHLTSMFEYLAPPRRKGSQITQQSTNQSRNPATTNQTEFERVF
T2 sequence (O60563 whole entry partner): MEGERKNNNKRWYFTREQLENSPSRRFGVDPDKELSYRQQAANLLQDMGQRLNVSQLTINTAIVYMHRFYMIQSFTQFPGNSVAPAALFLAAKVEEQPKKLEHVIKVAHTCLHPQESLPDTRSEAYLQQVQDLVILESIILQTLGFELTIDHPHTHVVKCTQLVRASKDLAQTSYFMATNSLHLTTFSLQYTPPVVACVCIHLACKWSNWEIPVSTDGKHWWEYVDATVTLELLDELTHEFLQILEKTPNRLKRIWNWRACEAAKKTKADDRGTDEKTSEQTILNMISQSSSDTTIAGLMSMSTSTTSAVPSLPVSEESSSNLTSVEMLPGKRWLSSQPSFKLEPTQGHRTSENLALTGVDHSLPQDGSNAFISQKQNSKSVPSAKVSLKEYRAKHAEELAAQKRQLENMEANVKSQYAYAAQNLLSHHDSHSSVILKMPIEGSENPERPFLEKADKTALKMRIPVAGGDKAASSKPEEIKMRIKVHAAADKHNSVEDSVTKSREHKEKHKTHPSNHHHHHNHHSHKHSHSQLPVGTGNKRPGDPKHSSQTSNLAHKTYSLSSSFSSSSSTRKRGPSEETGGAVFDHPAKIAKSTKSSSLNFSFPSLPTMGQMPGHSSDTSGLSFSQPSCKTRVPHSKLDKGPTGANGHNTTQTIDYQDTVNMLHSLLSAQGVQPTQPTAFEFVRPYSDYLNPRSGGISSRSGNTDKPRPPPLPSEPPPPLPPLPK
In words: CDK9/CycT1 high ATP kinase assay (TR-FRET, 2 mM ATP). The conditions noted are these: Method 1b. The test is classed as biochemical. On the procedure:
1b. CDK9/CyeT1 High ATP Kinase Assay
CDK9/CycT1-inhibitory activity of compounds of the present invention at a high ATP concentration after preincubation of enzyme and test compounds was quantified employing the CDK9/CycT1 TR-FRET assay as described in the following paragraphs.
Recombinant full-length His-tagged human CDK9 and CycT1, expressed in insect cells and purified by Ni-NTA affinity chromatography, were purchase from Invitrogen (Cat. No PV4131). As substrate for the kinase reaction biotinylated peptide biotin-Ttds-[…] (C-terminus in amid form) was used which can be purchased e.g. form the company JERINI peptide technologies (Berlin, Germany). For the assay 50 nl of a 100 fold concentrated solution of the test compound in DMSO was pipetted into a black low volume 384 well microtiter plate (Greiner Bio-One, Frickenhausen, Germany), 2 μl of a solution of CDK9/CycT1 in aqueous assay buffer [50 mM Tris/HCl pH 8.0, 10 mM MgCl2, 1.0 mM dithiothreitol, 0.1 mM sodium ortho-vanadate, 0.01% (v/v) Nonidet-P40 (Sigma)] were added and the mixture was incubated for 15 min at 22° C. to allow pre-binding of the test compounds to the enzyme before the start of the kinase reaction. Then the kinase reaction was started by the addition of 3 μl of a solution of adenosine-tri-phosphate (ATP, 3.3 mM=>final conc. in the 5 μl assay volume is 2 mM) and substrate (1.67 μM=>final conc. in the 5 μl assay volume is 1 μM) in assay buffer and the resulting mixture was incubated for a reaction time of 25 min at 22° C.
as §1, with “HTRF” for “TR-FRET”

Each structure is given as a SMILES string. pIC50: −log10 of the molar value. Where a name gives a salt, the structure may show the parent alone.

In general, pIC50 refers to the IC50 on a negative log10 scale, so that one unit is a factor of ten. High values mean a small IC50, low ones a large IC50. The molecule `COc1cc(F)ccc1-c1cc(Nc2cc(CS(C)(=N)=O)ccn2)ncc1F` (racemic) [Example 1, (rac)-5-Fluoro-4-(4-fluoro-2-methoxyphenyl)-N-{4-[(S-methylsulfonimidoyl)methyl]pyridin-2-yl}pyridin-2-amine] gave a pIC50 at CDK2/CycE of 6.39.
`COc1cc(F)ccc1-c1cc(Nc2cc(CS(C)(=N)=O)cc(C)n2)ncc1F` (racemic) [Example 4, (rac)-5-Fluoro-4-(4-fluoro-2-methoxyphenyl)-N-{6-methyl-4-[(S-methylsulfonimidoyl)methyl]pyridin-2-yl}pyridin-2-amine]: the pIC50 against CDK9/CycT1 is 8.70; at CDK2/CycE, 6.92.
For `COc1cc(F)ccc1-c1cc(Nc2cc(CS(C)(=N)=O)c(Br)c(C)n2)ncc1F` (racemic) [Example 5, (rac)-5-Bromo-N-[5-fluoro-4-(4-fluoro-2-methoxyphenyl)pyridin-2-yl]-6-methyl-4-[(S-methylsulfonimidoyl)methyl]pyridin-2-amine], in that order: 8.52 and 6.85.
Consider `COc1cc(CS(C)(=N)=O)cc(Nc2cc(-c3ccc(F)cc3OC)c(F)cn2)n1` (racemic) [Example 6, (rac)-5-Fluoro-4-(4-fluoro-2-methoxyphenyl)-N-{6-methoxy-4-[(S-methylsulfonimidoyl)methyl]pyridin-2-yl}pyridin-2-amine], for which the pIC50 at CDK9/CycT1 was 9.00; against CDK2/CycE, 8.40.
The matching figures for `COc1cc(F)ccc1-c1cc(Nc2cc(CS(C)(=N)=O)cc(Cl)n2)ncc1F` (racemic) [Example 7, (rac)-N-{6-Chloro-4-[(S-methylsulfonimidoyl)methyl]pyridin-2-yl}-5-fluoro-4-(4-fluoro-2-methoxyphenyl)pyridin-2-amine]: 8.70 and 7.36.
Turning to `COc1cc(F)ccc1-c1cc(Nc2cc(CS(=N)(=O)CCO)ccn2)ncc1F` (racemic) [Example 8, (rac)-2-{S-[(2-{[5-Fluoro-4-(4-fluoro-2-methoxyphenyl)pyridin-2-yl]amino}pyridin-4-yl)methyl]sulfonimidoyl}ethanol], the pIC50 is 7.85 against CDK9/CycT1 and 6.37 at CDK2/CycE.
Take `COc1cc(F)ccc1-c1cc(Nc2cc(CS(=N)(=O)CCN)ccn2)ncc1F` (racemic) [Example 9, (rac)-N-(4-{[S-(2-Aminoethyl)sulfonimidoyl]methyl}pyridin-2-yl)-5-fluoro-4-(4-fluoro-2-methoxyphenyl)pyridin-2-amine]: the pIC50 against CDK9/CycT1 is 8.22; against CDK2/CycE, 6.62.
For `CCOC(=O)N=S(C)(=O)Cc1ccnc(Nc2cc(-c3ccc(F)cc3OC)c(F)cn2)c1` (racemic) [Example 11, (rac)-Ethyl{[(2-{[5-fluoro-4-(4-fluoro-2-methoxyphenyl)pyridin-2-yl]amino}pyridin-4-yl)methyl](methyl)oxido-λ^6-sulfanylidene}carbamate], in that order: 9.00 and 6.77.
For `CCNC(=O)N=S(C)(=O)Cc1ccnc(Nc2cc(-c3ccc(F)cc3OC)c(F)cn2)c1` (racemic) [Example 12, (rac)-1-Ethyl-3-{[(2-{[5-fluoro-4-(4-fluoro-2-methoxyphenyl)pyridin-2-yl]amino}pyridin-4-yl)methyl](methyl)oxido-λ^6-sulfanylidene}urea], in that order: 8.70 and 6.85.
As to `COc1cc(F)ccc1-c1cc(Nc2cc(CS(C)(=O)=NC(C)=O)ccn2)ncc1F` (racemic) [Example 13, (rac)-N-{[(2-{[5-Fluoro-4-(4-fluoro-2-methoxyphenyl)pyridin-2-yl]amino}pyridin-4-yl)methyl](methyl)oxido-λ^6-sulfanylidene}acetamide], the pIC50 against CDK9/CycT1 was 9.00; at CDK2/CycE it was 6.89.
`CCOC(=O)N=S(C)(=O)Cc1cc(Nc2cc(-c3ccc(F)cc3OC)c(F)cn2)nc(OC)c1` (racemic) [Example 15, (rac)-ethyl{[(2-{[5-fluoro-4-(4-fluoro-2-methoxyphenyl)pyridin-2-yl]amino}-6-methoxypyridin-4-yl)methyl](methyl)oxido-λ^6-sulfanylidene}carbamate]: the results for the pIC50 at CDK9/CycT1 and against CDK2/CycE were 9.00 and 8.00, respectively.
In the case of `COc1cc(F)ccc1-c1cc(Nc2cc(CS(C)(=N)=O)cc(F)n2)ncc1F` (racemic) [Example 17, (rac)-5-Fluoro-4-(4-fluoro-2-methoxyphenyl)-N-{6-fluoro-4-[(S-methylsulfonimidoyl)methyl]pyridin-2-yl}pyridin-2-amine], the values for the pIC50 against CDK9/CycT1 and on CDK2/CycE were 8.74 and 7.31, respectively.
In the case of `COc1cc(F)ccc1-c1cc(Nc2cc(CS(C)(=O)=NC(=O)C(F)(F)F)cc(F)n2)ncc1F` (racemic) [Example 18, (rac)-2,2,2-Trifluoro-N-{[(2-fluoro-6-{[5-fluoro-4-(4-fluoro-2-methoxyphenyl)pyridin-2-yl]amino}pyridin-4-yl)methyl](methyl)oxido-λ^6-sulfanylidene}acetamide], the values for the pIC50 at CDK9/CycT1 and against CDK2/CycE were 8.40 and 7.41, respectively.
As for `COc1cc(F)ccc1-c1cc(Nc2cc(CS(C)(=N)=O)ccn2)ncc1F` (single isomer, unassigned; (+)) [Example 2, (+)-5-Fluoro-4-(4-fluoro-2-methoxyphenyl)-N-{4-[(S-methylsulfonimidoyl)methyl]pyridin-2-yl}pyridin-2-amine], the pIC50 at CDK2/CycE is 6.44.
`COc1cc(F)ccc1-c1cc(Nc2cc(CS(C)(=N)=O)ccn2)ncc1F` (single isomer, unassigned; (-)) [Example 3, (−)-5-Fluoro-4-(4-fluoro-2-methoxyphenyl)-N-{4-[(S-methylsulfonimidoyl)methyl]pyridin-2-yl}pyridin-2-amine]: the pIC50 against CDK2/CycE was 6.62. This pIC50 and that of the molecule before are within 0.2 log units of each other.
Still for that read-out and setting: for `COc1cc(F)ccc1-c1cc(Nc2cc(CS(C)(=N)=O)ccn2)ncc1F` (single isomer, unassigned; enantiomer 1) [Example 16, 5-Fluoro-4-(4-fluoro-2-methoxyphenyl)-N-{4-[(S-methylsulfonimidoyl)methyl]pyridin-2-yl}pyridin-2-amine hydrochloride; enantiomer 1] the value was 6.37; for `COc1cc(F)ccc1-c1cc(Nc2cc(CS(C)(=N)=O)ccn2)ncc1F.Cl` (single isomer, unassigned; enantiomer 2) [Example 14, 5-Fluoro-4-(4-fluoro-2-methoxyphenyl)-N-{4-[(S-methylsulfonimidoyl)methyl]pyridin-2-yl}pyridin-2-amine hydrochloride; enantiomer 2], 6.70.
